According to ChEMBL document CHEMBL5352465, “Small molecules containing chalcogen elements (S, Se, Te) as new warhead to fight neglected tropical diseases” (Eur J Med Chem, 2023):

Key:
Leishmania braziliensis = experiment: Antileishmanial activity against Leishmania braziliensis MHOM/BR/75/M2903 strain promastigotes assessed as reduction in cell viability incubated for 48 hrs by MTT assay; type: functional, organism-based; conditions: MHOM/BR/75/M2903, 48 h
Leishmania infantum [1] = experiment: Antileishmanial activity against Leishmania infantum MHOM/BR/74/PP75 strain promastigotes assessed as reduction in cell viability incubated for 48 hrs by MTT assay; type: functional, organism-based; conditions: MHOM/BR/74/PP75, 48 h
[2] = Selectivity index, ratio of CC50 for human WI26VA4 cells to ratio of IC50 for antileishmanial activity against Leishmania braziliensis MHOM/BR/75/M2903 promastigote; type: toxicity; conditions: read-out: Ratio CC50/IC50
[3] = Selectivity index, ratio of CC50 for human WI26VA4 cells to ratio of IC50 for antileishmanial activity against Leishmania infantum MHOM/BR/74/PP75 promastigote; type: toxicity; conditions: read-out: Ratio CC50/IC50
Leishmania infantum [4] = experiment: Antileishmanial activity against Leishmania infantum amastigotes assessed as inhibition of parasite growth; type: functional, organism-based
Trypanosoma cruzi [5] = experiment: Antitrypanosomal activity against Trypanosoma cruzi epimastigote assessed as parasite growth inhibition; type: functional, organism-based
Trypanosoma cruzi [6] = experiment: Antitrypanosomal activity against Trypanosoma cruzi arequipa strain trypomastigotes assessed as parasite growth inhibition incubated for 48 hrs by resazurin staining based analysis; type: functional, organism-based
Trypanosoma cruzi [7] = experiment: Antitrypanosomal activity against Trypanosoma cruzi arequipa strain epimastigotes assessed as parasite growth inhibition incubated for 48 hrs by resazurin staining based analysis; type: functional, organism-based
Trypanosoma cruzi [8] = experiment: Antitrypanosomal activity against Trypanosoma cruzi arequipa strain amastigotes assessed as parasite growth inhibition incubated for 48 hrs by resazurin staining based analysis; type: functional, organism-based
Trypanosoma cruzi [9] = experiment: Antitrypanosomal activity against bloodstream Trypanosoma cruzi NINOA strain trypomastigotes assessed as parasite growth inhibition incubated for 24 hrs by microscopic analysis; type: functional
Trypanosoma cruzi [10] = experiment: Antitrypanosomal activity against bloodstream Trypanosoma cruzi INC-5 strain trypomastigotes assessed as parasite growth inhibition incubated for 24 hrs by microscopic analysis; type: functional
Leishmania amazonensis = experiment: Antileishmanial activity against Leishmania amazonensis promastigotes assessed as inhibition of parasite growth; type: functional, organism-based
[11] = Selectivity index, ratio of CC50 for mouse J774.A1 cells to ratio of IC50 for antitrypanosomal activity against bloodstream Trypanosoma cruzi NINOA strain trypomastigotes; type: toxicity; conditions: read-out: Ratio CC50/IC50
[12] = Selectivity index, ratio of CC50 for mouse J774.A1 cells to ratio of IC50 for antitrypanosomal activity against bloodstream Trypanosoma cruzi INC-5 strain trypomastigotes; type: toxicity; conditions: read-out: Ratio CC50/IC50
Trypanosoma cruzi [13] = experiment: Antitrypanosomal activity against bloodstream Trypanosoma cruzi Y strain trypomastigotes assessed as parasite growth inhibition incubated for 24 hrs by light microscopic analysis; type: functional, organism-based
Trypanosoma cruzi [14] = experiment: Antitrypanosomal activity against Trypanosoma cruzi epimastigote Dm28c strain assessed as parasite growth inhibition; type: functional, organism-based
Trypanosoma cruzi [15] = experiment: Antitrypanosomal activity against Trypanosoma cruzi amastigote assessed as parasite growth inhibition; type: functional, organism-based
[16] = Selectivity index, ratio of CC50 for cytotoxicity against mouse RAW264.7 cells to IC50 for antitrypanosomal activity against Trypanosoma cruzi epimastigote; type: toxicity, cell-based; conditions: read-out: Ratio CC50/IC50
[17] = Selectivity index, ratio of CC50 for cytotoxicity against mouse RAW264.7 cells to IC50 for antitrypanosomal activity against Trypanosoma cruzi amastigote; type: toxicity, cell-based; conditions: read-out: Ratio CC50/IC50
Leishmania major = experiment: Antileishmanial activity against Leishmania major promastigote assessed as inhibition of parasite growth; type: functional, organism-based

O=C1NC(=O)/C(=C/c2ccc(Cl)cc2Cl)S1
IC50 (Leishmania braziliensis): 44.2 µM
IC50 (Leishmania infantum [1]): 40.9 µM
selectivity ratio [2]: 0.76
selectivity ratio [3]: 0.82

O=P(Nc1ccc([Se][Se]c2ccc(NP(=O)(Oc3ccccc3)Oc3ccccc3)cc2)cc1)(Oc1ccccc1)Oc1ccccc1
IC50 (Leishmania infantum [4]): 14.3 µM

COc1ccc(-c2c(/N=C/NC(N)=S)c(C(F)(F)F)nn2-c2ccccc2)cc1
IC50 (Trypanosoma cruzi [5]): 29.7 µM

FC(F)(F)c1ccc(C[Se][Se]Cc2ccc(C(F)(F)F)cc2)cc1
IC50 (Trypanosoma cruzi [6]): 1.5 µM
IC50 (Trypanosoma cruzi [7]): 1.9 µM
IC50 (Trypanosoma cruzi [8]): 0.8 µM

O=C1NC(=O)/C(=C/c2cc(Cl)cc(Cl)c2Cl)S1
IC50 (Leishmania braziliensis): 46.4 µM
IC50 (Leishmania infantum [1]): 30.4 µM
selectivity ratio [2]: 0.63
selectivity ratio [3]: 0.96

NS(=O)(=O)c1ccc(-c2cnc(C[Se]c3ccccc3)[se]2)cc1
IC50 (Leishmania infantum [4]): 4.11 µM

O=C1NC(=O)/C(=C/c2ccccc2Cl)S1
IC50 (Leishmania braziliensis): 71 µM
IC50 (Leishmania infantum [1]): 68.8 µM
selectivity ratio [2]: 0.86
selectivity ratio [3]: 0.89

NC(=S)N/C=N/c1c(C(F)(F)F)nn(-c2ccccc2)c1-c1ccc(F)cc1
IC50 (Trypanosoma cruzi [5]): 69.3 µM

Fc1ccc(CSc2nc3ccccc3s2)cc1
LC50 (Trypanosoma cruzi [9]): > 350 µM
LC50 (Trypanosoma cruzi [10]): > 350 µM

NC(=S)N/C=N/c1c(C(F)(F)F)nn(-c2ccccc2)c1-c1ccc(Cl)cc1
IC50 (Trypanosoma cruzi [5]): 49.2 µM

CC1=CC[C@@H](C(C)(C)NC(=S)NN)CC1
IC50 (Leishmania amazonensis): 3 µM

COc1ccc(CSc2nc3ccccc3s2)cc1
LC50 (Trypanosoma cruzi [9]): 308 µM
LC50 (Trypanosoma cruzi [10]): 276 µM
selectivity ratio [11]: > 2.92
selectivity ratio [12]: > 3.26

O=C(Nc1ccc([Se][Se]c2ccc(NC(=O)c3cccs3)cc2)cc1)c1cccs1
IC50 (Trypanosoma cruzi [6]): 12.7 µM
IC50 (Trypanosoma cruzi [8]): 15.4 µM

CCOP(=O)(Nc1ccc([Se][Se]c2ccc(NP(=O)(OCC)OCC)cc2)cc1)OCC
IC50 (Leishmania infantum [4]): 0.17 µM

O=C(Nc1ccc([Se][Se]c2ccc(NC(=O)c3ccc([N+](=O)[O-])cc3)cc2)cc1)c1ccc([N+](=O)[O-])cc1
IC50 (Trypanosoma cruzi [6]): 35.8 µM
IC50 (Trypanosoma cruzi [8]): 49.3 µM

CC1=CC[C@@H](C(C)(C)NC(=S)N/N=C/c2ccc([N+](=O)[O-])cc2)CC1
IC50 (Leishmania amazonensis): 11.2 µM

Fc1cccc(CSc2nc3ccccc3s2)c1
LC50 (Trypanosoma cruzi [9]): > 350 µM
LC50 (Trypanosoma cruzi [10]): > 350 µM

O=S(=O)(Nc1ccc([Se][Se]c2ccc(NS(=O)(=O)c3ccc(C(F)(F)F)cc3)cc2)cc1)c1ccc(C(F)(F)F)cc1
IC50 (Trypanosoma cruzi [6]): 2 µM
IC50 (Trypanosoma cruzi [7]): 2.7 µM
IC50 (Trypanosoma cruzi [8]): 2.3 µM

Clc1ccc(CSc2nc3ccccc3s2)cc1
LC50 (Trypanosoma cruzi [9]): > 350 µM
LC50 (Trypanosoma cruzi [10]): 263 µM
selectivity ratio [12]: > 3.42

CC1(C)OC2=C(CC1[Se]c1cccs1)C(=O)C(=O)c1ccccc12 (stereo not given)
IC50 (Trypanosoma cruzi [13]): 63.3 µM

NS(=O)(=O)c1ccc(CCNC(=O)Cc2ccc(Br)cc2)cc1
IC50 (Trypanosoma cruzi [14]): 7.36 µM
IC50 (Trypanosoma cruzi [15]): 3.51 µM
selectivity ratio [16]: 0.44
selectivity ratio [17]: 0.44

NS(=O)(=O)c1ccc(NC(=O)Cc2ccc(Cl)cc2)c(F)c1
IC50 (Trypanosoma cruzi [14]): 3.54 µM
IC50 (Trypanosoma cruzi [15]): 2.83 µM
selectivity ratio [16]: 2
selectivity ratio [17]: 3

O=C1C(=O)c2ccccc2C2=C1CC(C[Se]c1ccc(Cl)cc1)O2 (stereo not given)
IC50 (Trypanosoma cruzi [13]): 58.3 µM

O=C1c2ccccc2C(=O)c2cc(C[Se][Se]Cc3ccc4c(c3)C(=O)c3ccccc3C4=O)ccc21
IC50 (Leishmania infantum [4]): 0.68 µM

Fc1cccc(F)c1CSc1nc2ccccc2s1
LC50 (Trypanosoma cruzi [9]): 110 µM
LC50 (Trypanosoma cruzi [10]): 260 µM
selectivity ratio [11]: 4.48
selectivity ratio [12]: 1.91

c1ccc2c(c1)nnn2C[Se][Se]Cn1nnc2ccccc21
IC50 (Leishmania infantum [4]): 0.45 µM

NC(=S)N/C=N/c1c(C(F)(F)F)nn(-c2ccccc2)c1-c1ccc(Br)cc1
IC50 (Trypanosoma cruzi [5]): 30.3 µM

CCOP(=S)(Nc1ccc([Se][Se]c2ccc(NP(=S)(OCC)OCC)cc2)cc1)OCC
IC50 (Leishmania infantum [4]): 0.79 µM

COc1ccc([Te]Cc2ccc(S(N)(=O)=O)cc2)cc1
IC50 (Leishmania infantum [4]): 6.14 µM

Fc1c(F)c(F)c(CSc2nc3ccccc3s2)c(F)c1F
LC50 (Trypanosoma cruzi [9]): 147 µM
LC50 (Trypanosoma cruzi [10]): 185 µM
selectivity ratio [11]: 1.69
selectivity ratio [12]: 1.34

O=C1NC(=O)/C(=C/c2cc(Cl)cc(Br)c2O)S1
IC50 (Leishmania braziliensis): 48.2 µM
IC50 (Leishmania infantum [1]): 35.9 µM
selectivity ratio [2]: 0.55
selectivity ratio [3]: 0.74

COP(=O)(Nc1ccc([Se][Se]c2ccc(NP(=O)(OC)OC)cc2)cc1)OC
IC50 (Leishmania infantum [4]): 0.33 µM

N#Cc1ccc(C[Se][Se]Cc2ccc(C#N)cc2)cc1
IC50 (Trypanosoma cruzi [6]): 0.9 µM
IC50 (Trypanosoma cruzi [7]): 1.3 µM
IC50 (Trypanosoma cruzi [8]): 0.5 µM

O=C1NC(=O)/C(=C/c2ccc(Cl)c(Cl)c2)S1
IC50 (Leishmania braziliensis): 65.7 µM
IC50 (Leishmania infantum [1]): 23.4 µM
selectivity ratio [2]: 0.66
selectivity ratio [3]: 1.85

NC(=S)N/C=N/c1c(C(F)(F)F)nn(-c2ccccc2)c1-c1ccc([N+](=O)[O-])cc1
IC50 (Trypanosoma cruzi [5]): 45.7 µM

NS(=O)(=O)c1ccc(NC(=O)Cc2ccccc2Br)c(F)c1
IC50 (Trypanosoma cruzi [14]): 5.66 µM
IC50 (Trypanosoma cruzi [15]): 2.27 µM
selectivity ratio [16]: 1
selectivity ratio [17]: 3

c1ccc(CSc2nc3ccccc3s2)cc1
LC50 (Trypanosoma cruzi [9]): 123 µM
LC50 (Trypanosoma cruzi [10]): 336 µM
selectivity ratio [11]: > 7.29
selectivity ratio [12]: > 2.68

NS(=O)(=O)c1nnc(NC(=O)Cc2ccc(Cl)cc2)s1
IC50 (Trypanosoma cruzi [14]): 6.24 µM
IC50 (Trypanosoma cruzi [15]): 3.47 µM
selectivity ratio [16]: 1
selectivity ratio [17]: 1

COc1ccc(CC(=O)Nc2nnc(S(N)(=O)=O)s2)cc1
IC50 (Trypanosoma cruzi [14]): 6.69 µM
IC50 (Trypanosoma cruzi [15]): 3.27 µM
selectivity ratio [16]: 1
selectivity ratio [17]: 1

N#C[Se]Cc1cccc(C#N)c1
IC50 (Trypanosoma cruzi [6]): 0.9 µM
IC50 (Trypanosoma cruzi [7]): 1 µM
IC50 (Trypanosoma cruzi [8]): 0.8 µM

O=C(Nc1ccc([Se][Se]c2ccc(NC(=O)c3ccco3)cc2)cc1)c1ccco1
IC50 (Trypanosoma cruzi [6]): 1.8 µM
IC50 (Trypanosoma cruzi [8]): 3.2 µM

Cc1ccc(C[Se]C#N)cc1
IC50 (Trypanosoma cruzi [6]): 4.5 µM
IC50 (Trypanosoma cruzi [7]): 3 µM
IC50 (Trypanosoma cruzi [8]): 3.1 µM

CC1(C)OC2=C(CC1[Se]c1cccc3ccccc13)C(=O)C(=O)c1ccccc12 (stereo not given)
IC50 (Trypanosoma cruzi [13]): 57 µM

N#C[Se]Cc1ccccc1[N+](=O)[O-]
IC50 (Trypanosoma cruzi [6]): 1.3 µM
IC50 (Trypanosoma cruzi [7]): 0.9 µM
IC50 (Trypanosoma cruzi [8]): 0.5 µM

NC(=S)N/C=N/c1c(C(F)(F)F)nn(-c2ccccc2)c1-c1ccccc1
IC50 (Trypanosoma cruzi [5]): 83.1 µM

Cc1ccc(S(=O)(=O)Nc2ccc([Se][Se]c3ccc(NS(=O)(=O)c4ccc(C)cc4)cc3)cc2)cc1
IC50 (Trypanosoma cruzi [6]): 3.7 µM
IC50 (Trypanosoma cruzi [7]): 5.1 µM
IC50 (Trypanosoma cruzi [8]): 4.2 µM

O=C(Nc1ccc([Se][Se]c2ccc(NC(=O)c3ccc(C(F)(F)F)cc3)cc2)cc1)c1ccc(C(F)(F)F)cc1
IC50 (Trypanosoma cruzi [6]): 2.4 µM
IC50 (Trypanosoma cruzi [8]): 5.4 µM

CSc1ccc(C[Se][Se]Cc2ccc(SC)cc2)cc1
IC50 (Trypanosoma cruzi [6]): 1.7 µM
IC50 (Trypanosoma cruzi [7]): 1.8 µM
IC50 (Trypanosoma cruzi [8]): 1.2 µM

NS(=O)(=O)c1ccc(NC(=[Se])NC(=O)c2ccc3c(c2)OCO3)cc1
IC50 (Leishmania infantum [4]): 5.28 µM

Oc1cccc(-c2nnc(-c3ccc4ncccc4c3)s2)c1O
IC50 (Leishmania major): 0.04 µM

Cc1ccc([Te]Cc2ncc(-c3ccc(S(N)(=O)=O)cc3)[se]2)cc1
IC50 (Leishmania infantum [4]): 0.34 µM

NS(=O)(=O)c1ccc(NC(=[Se])NC(=O)c2ccccc2)cc1
IC50 (Leishmania infantum [4]): 5.23 µM

O=C1C(=O)c2ccccc2C2=C1CC(C[Se]c1cccc(C(F)(F)F)c1)O2 (stereo not given)
IC50 (Trypanosoma cruzi [13]): 75.5 µM

NS(=O)(=O)c1nnc(NC(=O)Cc2ccccc2Br)s1
IC50 (Trypanosoma cruzi [14]): 3.98 µM
IC50 (Trypanosoma cruzi [15]): 2.15 µM
selectivity ratio [16]: 2
selectivity ratio [17]: 5

Oc1ccc(-c2nnc(-c3ccc4ncccc4c3)s2)c(O)c1
IC50 (Leishmania major): 0.7 µM

NS(=O)(=O)c1ccc(C[Te]c2ccc3ccccc3c2)cc1
IC50 (Leishmania infantum [4]): 5.83 µM
